# According to article PMC6435658, “Investigation into the Molecular Mechanisms underlying the Anti-proliferative and Anti-tumorigenesis activities of Diosmetin against HCT-116 Human Colorectal Cancer” (Scientific Reports, 2019):
# Legend:
# NF-κB = assay: Translocation of NF-κB induced by TNF-α; type: cell-based, human; details: HCT-116 stimulated with TNF-α, vs untreated group
# Description: Confocal microscope was used to detect the suppressive effect of Dis on translocation of NF-κB from cytoplasm to nucleus induced by TNF-α (Santa Cruz, CA, USA) using cellomics nucleus factor-κB (NF-κB) activation kit (Thermo Scientific™, Pittsburgh, PA, USA). HCT-116 cells were seeded and treated with Dis at different time points in 24 well-plate covered with cover slide. An amount of 150 ng/ml of TNF-α was used as a stimulator for 24 h. Cells were then fixed and stained according to the manufacturer’s instructions. Translocation of NF-κB was investigated via confocal Leica TCS SP5 II microscope (Leica Microsystems, Mannheim, Germany) and intensity of NF-κB was measured by using LAS X software.
# HCT-116 cells [1] = assay: Human apoptosis protein array (proteome profiler); type: cell-based; details: vs control
# Description: Apoptosis protein expression profiling was performed using human apoptosis array (R&D Systems, Minneapolis, MN, USA) according to the manufacturer’s protocol. In brief, 2 × 10^6 HCT-116 cells were seeded and treated with Dis in 75 cm^2 flask and incubated for 48 h. Cells were harvested and lysed via lysis buffer reagent and was quantified using Pierce BCA protein assay kit (Thermo Scientific™, Pittsburgh, PA, USA). The membrane provided was blocked in blocking solution reagent and treated overnight with cell lysates protein. The membrane was washed and subsequently incubated with detection antibody cocktail and streptavidin horseradish peroxidase-conjugated. Chemiluminescent reagents were added to the membrane and then exposed to X-ray film to detect the protein expression levels in treated cells as compared to untreated cells. Images were quantified via ImageJ software (NIH, USA). The list of investigated proteins is provided as supplementary data (Table S2).
# HCT-116 cells [2] = assay: Multiple cytotoxicity assay (Cellomics multiparameter cytotoxicity 3 kit); type: cell-based, human; details: HCT-116, Dis 3.58 µg/ml
# Description: Cellomics multiparameter cytotoxicity 3 kit (Thermo Scientific™, Pittsburgh, PA, USA) was used to investigate the vital apoptotic events in HCT-116 cells in the presence of Dis. Cytotoxicity 3 assay was used to provide information about the changes in nuclear morphology, cell membrane integrity, cytochrome C release and mitochondrial outer membrane permeabilization (MOMP). HCT-116 cells were seeded in 24 well-plate and covered by a cover slide followed by treatment with Dis for 24 h, 48 h and 72 h. Treated cells were stained with YoYo dye (life technology, CA, USA) and Mitotracker dye (life technology, CA, USA) followed by fixation and blocking procedures according to the manufacture’s protocol. Primary cytochrome C (Thermo Scientific™, Pittsburgh, PA, USA) antibody and secondary DyLight 650 (Thermo Scientific™, Pittsburgh, PA, USA) were added to each well and incubated for 1 h in the dark. Hoechst 33342 dye (Thermo Scientific™, Pittsburgh, PA, USA) was added in the last step to stain the nuclei of the cells. Cells were washed and cover slides were transferred on the slide and introduced to confocal Leica TCS SP5 II microscope (Leica Microsystems, Mannheim, Germany). Intensity of each dye was measured by using LAS X software.
# HT-29 cells = assay: MTT cytotoxicity assay, HT-29; type: cell-based, human; details: for IC50: Homo sapiens, MTT
# Description: [Worded in the source for another cell line; this cell line is reported under the same test.] (§1) Cytotoxicity property of Dis against HCT-116 and CCD-841 cells were measured by MTT assay as described by Mossman[77]. Briefly, cells were treated with different concentration of Dis and 5-Fu (positive control) with serial dilution factor of 2 for 8 concentrations in 96 well-plate for different time points (24 h, 48 h and 72 h). Subsequently at the end of each time point 20 µl of MTT (5 mg/ml, Affymetrix,Cleveland, OH, USA) were added to each well followed by 4 h incubation. The solutions were aspirated after 4 h and 100 µl of DMSO were added to each well. Absorbance for each well was read at 570 nm as measured by using microplate reader (Tecan Infinite multimode, Männedorf, Switzerland). Cytotoxicity (cell death) was measured by using the following formula: Celldeath(%)=sampleOD−controlOD/controlOD100
# (§2) This assay was performed in triplicates in three independent experiments. The cytotoxicity property of Dis was presented as IC50 value.
# MDA-MB 468 = test system: MDA-MB 468; parameters: method as in PMID 19424633, PMID 27176768, PMID 26847170, PMID 20183323; details: MDA-MB 468, 24 h treatment; ref [10],[13],[15],[47]; cited from earlier work
# HepG-2 = test system: HepG-2; parameters: method as in PMID 19424633, PMID 27176768, PMID 26847170, PMID 20183323; details: HepG-2, 24 h treatment; ref [10],[13],[15],[47]; cited from earlier work
# CCD-841 cells = assay: MTT cytotoxicity assay, CCD-841 normal colon cells; type: cell-based; details: Homo sapiens, CCD-841 non cancerous cells
# Description: as §1, §2
# caspase 9 = assay: Caspase-Glo 9 bioluminescent assay; type: cell-based, human; details: HCT-116, 24 h, 48 h, 72 h, time dependent
# Description: (§3) To assess the effect of Dis on caspase cascades in treated cells, activities of caspase-Glo 3/7, caspase-Glo 8 and caspase-Glo 9 assays (Promega, Madison, WI, USA) were performed. Briefly, HCT-116 cells with the density of 10^4 cells/well were seeded in 96 well-plates. Cells were treated with Dis for 24 h, 48 h and 72 h. This assay was performed in triplicates for each time point. A total of 6 wells were preserved for samples without cells but with media and reagents as the blank samples, and for the untreated cells as negative control. At the end of incubation time, 100 µl caspase-glo mixture were added to each well and incubated for 1 h in the dark according to the manufacturer’s instructions. Optical density was measured via multimode microplate reader (Tecan Infinite, Männedorf, Switzerland).
# SK-Hep-1 = test system: SK-Hep-1; parameters: method as in PMID 19424633, PMID 27176768, PMID 26847170, PMID 20183323; details: SK-Hep-1, 24 h; ref [10],[13],[15],[47]; cited from earlier work
# caspase 3/7 = assay: Caspase-Glo 3/7 bioluminescent assay; type: cell-based, human; details: HCT-116, 24 h, 48 h, 72 h, time dependent
# Description: as §3
# caspase 8 = assay: Caspase-Glo 8 bioluminescent assay; type: cell-based, human; details: HCT-116, 24 h, 48 h, 72 h, time dependent
# Description: as §3
smiles,measurement,setting,value
"COc1ccc(-c2cc(=O)c3c(O)cc(O)cc3o2)cc1O [Dis, Diosmetin]",translocation of NF-ƙB,NF-κB,significantly reduced
same,"Protein expression of caspase 3 cleavage, fold change","HCT-116 cells [1]; HCT-116, 3.58 µg/ml Dis, 48 h",2.61
same,"Protein expression of pro-caspase 3, fold change","HCT-116 cells [1]; HCT-116, 3.58 µg/ml Dis, 48 h",0.75
same,"Hsp27 expression, gene and protein levels","HCT-116 cells [1]; HCT-116, 48 h",significantly decreased
same,expression of FADD,"HCT-116 cells [1]; HCT-116, 48 h",significantly increased
same,protein expression level of Bax,"HCT-116 cells [1]; HCT-116, 48 h",accelerated
same,protein expression level of Cytochrome C,"HCT-116 cells [1]; HCT-116, 48 h",accelerated
same,protein expression of Survivin,"HCT-116 cells [1]; HCT-116, 48 h",significantly decreased
same,Cytochrome C release,HCT-116 cells [2],releases of Cytochrome C from mitochondria to cytosol
same,mitochondrial membrane potential,HCT-116 cells [2]; Mitotracker uptake,losses of the mitochondrial membrane potential
same,cell permeability,HCT-116 cells [2]; YoYo dye,increases
same,IC50,"HT-29 cells; HT-29, 24 h",44.5 ± 1.75 µg/mL
same,IC50,"HT-29 cells; HT-29, 48 h",17.6 ± 0.61 µg/mL
same,IC50,"HT-29 cells; HT-29, 72 h",11.46 ± 0.1 µg/mL
same,Selectivity Index (SI),"HT-29 cells; IC50 CCD-841 / IC50 HT-29, 24 h",5.31
same,Selectivity Index (SI),"HT-29 cells; IC50 CCD-841 / IC50 HT-29, 48 h",2.96
same,Selectivity Index (SI),"HT-29 cells; IC50 CCD-841 / IC50 HT-29, 72 h",3.53
same,IC50,MDA-MB 468,1.35 µg/mL
same,IC50,HepG-2,12 µg/mL
same,IC50,CCD-841 cells; 24 h,236 ± 9.99 µg/mL
same,IC50,CCD-841 cells; 48 h,51.95 ± 0.11 µg/mL
same,IC50,CCD-841 cells; 72 h,40.5 ± 9.99 µg/mL
same,cleavage of caspase 9,caspase 9,significantly increased
same,IC50,SK-Hep-1,100 µg/mL
same,cleavage of caspase 3/7,caspase 3/7,significantly increased
same,cleavage of caspase 8,caspase 8,significantly increased
